Test results reported in patent US6342245B1, “Compositions of lipid lowering agents” (Janssen Pharmaceutica N.V., priority 1997, dated 2002).

System: apolipoprotein B
Test: Apolipoprotein B (apo B) inhibition test
Format: cell-based, human
Settings: Hep G2-cells; concentration needed to reduce apoB secretion to 50% of the control
Procedure: Cultured human liver cells (Hep G2-cells ) which synthesize and secrete low-density lipoproteins, were incubated overnight at 37° C. in a liquid medium containing radioactively labelled leucine. Thus radioactively labelled leucine was incorporated into the apolipoprotein B. The liquid medium was decanted and the apolipoprotein B was isolated by means of a double immunoprecipitation, i.e. first an apolipoprotein B-specific antibody (antibody1) was added to the liquid medium and subsequently a second antibody (antibody2) was added which binds specifically to the apoB-antibody1-complex. The thus formed apoB-antibody1-antibody2 complex precipitated and was isolated by centrifuge. Quantification of the amount of apolipoprotein B synthesized during the night resulted from measuring the radioactivity of the isolated complex. […] For each experiment the inhibition of apolipoprotein-B formation was expressed as [formula]
When more experiments were carried out for the same concentration, the median value of the inhibition calculated for these experiments was calculated. […]

- IC50: 23 nM
SMILES: CCC(C)n1ncn(-c2ccc(N3CCN(c4ccc(OC[C@H]5CO[C@](CSc6nncn6C)(c6ccc(Cl)cc6)O5)cc4)CC3)cc2)c1=O (relative stereo) [Compound 40, cis-4-[4-[4-[4-[[2-(4-chlorophenyl)-2-[[(4-methyl-4H-1,2,4-triazol-3-yl)thio]methyl]-1,3-dioxolan-4-yl]methoxy]phenyl]-1-piperazinyl]phenyl]-2,4-dihydro-2-(1-methyl-propyl)-3H-1,2,4-triazol-3-one]
